Holding throughout (experiment): Affinity-purification and mass spectrometry (AP-MS) chemical proteomics, all proteins;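 as to Difference: 200 µM free competitor with 20 µM biotin probe overnight in lysate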
Holding throughout (assay type): binding

In test [1] the target is T1, proteins displaced from immobilized biotin-Cmpd 1 pulldowns (U2OS cell lysate) (Homo sapiens, UniProt O60832).
T1 construct: endogenous in cells; host or cells: U2OS
The settings on record: GN=DKC1 (O60832).

In test [2] the target is T2, proteins displaced from immobilized biotin-Cmpd 1 pulldowns (U2OS cell lysate) (Homo sapiens, UniProt P10599).
T2 construct: endogenous in cells; host or cells: U2OS
The note with it: GN=TXN (P10599).

Test [3] addresses T3, proteins displaced from immobilized biotin-Cmpd 1 pulldowns (U2OS cell lysate) (Homo sapiens, UniProt Q9NZT1).
T3 construct: endogenous in cells; host or cells: U2OS
The settings on record: GN=CALML5 (Q9NZT1).

Test [4] deals with T4, proteins displaced from immobilized biotin-Cmpd 1 pulldowns (U2OS cell lysate) (Homo sapiens, UniProt Q5T749).
T4 construct: endogenous in cells; host or cells: U2OS
The settings on record: GN=KPRP (Q5T749).

Test [5] addresses T5, proteins displaced from immobilized biotin-Cmpd 1 pulldowns (U2OS cell lysate) (Homo sapiens, UniProt Q6UB35).
T5 construct: endogenous in cells; host or cells: U2OS
The settings on record: GN=MTHFD1L (Q6UB35).

In test [6] the target is T6, proteins displaced from immobilized biotin-Cmpd 1 pulldowns (U2OS cell lysate) (Homo sapiens, UniProt O95478).
T6 construct: endogenous in cells; host or cells: U2OS
The settings on record: GN=NSA2 (O95478).

In test [7] the target is T7, proteins displaced from immobilized biotin-Cmpd 1 pulldowns (U2OS cell lysate) (Homo sapiens, UniProt P16615).
T7 construct: endogenous in cells; host or cells: U2OS
The note with it: GN=ATP2A2 (P16615).

Test [8] deals with T8, proteins displaced from immobilized biotin-Cmpd 1 pulldowns (U2OS cell lysate) (Homo sapiens, UniProt O43684).
T8 construct: endogenous in cells; host or cells: U2OS
The note with it: GN=BUB3 (O43684).

Test [9] addresses T9, proteins displaced from immobilized biotin-Cmpd 1 pulldowns (U2OS cell lysate) (Homo sapiens, UniProt P42357).
T9 construct: endogenous in cells; host or cells: U2OS
The settings on record: GN=HAL (P42357).

Test [10] has as its target T10, proteins displaced from immobilized biotin-Cmpd 1 pulldowns (U2OS cell lysate) (Homo sapiens, UniProt O14979).
T10 construct: endogenous in cells; host or cells: U2OS
The settings on record: GN=HNRNPDL (A0A087WU03).

Several values for one entry are separate records, joined by “and”; a condition that tells them apart may be missing. Identical values can stand only once.

T8 sequence (O43684 whole entry): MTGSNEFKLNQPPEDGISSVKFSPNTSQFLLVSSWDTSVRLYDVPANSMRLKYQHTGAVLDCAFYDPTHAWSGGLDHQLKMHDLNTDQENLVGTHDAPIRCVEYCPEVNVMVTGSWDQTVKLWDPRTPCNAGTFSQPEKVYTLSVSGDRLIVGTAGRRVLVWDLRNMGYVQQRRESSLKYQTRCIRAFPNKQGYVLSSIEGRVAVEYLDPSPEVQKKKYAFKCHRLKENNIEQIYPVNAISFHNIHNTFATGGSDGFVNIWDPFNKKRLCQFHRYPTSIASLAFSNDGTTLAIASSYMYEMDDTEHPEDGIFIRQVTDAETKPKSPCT
T10 sequence (O14979 whole entry): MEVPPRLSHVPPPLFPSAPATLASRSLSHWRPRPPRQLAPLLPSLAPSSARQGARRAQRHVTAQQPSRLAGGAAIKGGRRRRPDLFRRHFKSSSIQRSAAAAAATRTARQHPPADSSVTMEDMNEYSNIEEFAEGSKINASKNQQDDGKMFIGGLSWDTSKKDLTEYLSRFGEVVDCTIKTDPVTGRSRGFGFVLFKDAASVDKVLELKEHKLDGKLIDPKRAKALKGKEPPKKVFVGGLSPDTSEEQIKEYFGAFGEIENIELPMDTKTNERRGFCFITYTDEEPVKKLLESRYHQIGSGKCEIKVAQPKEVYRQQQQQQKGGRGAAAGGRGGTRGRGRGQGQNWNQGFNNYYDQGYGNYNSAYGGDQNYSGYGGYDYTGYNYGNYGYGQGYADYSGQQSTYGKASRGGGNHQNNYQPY
T3 sequence (Q9NZT1 whole entry): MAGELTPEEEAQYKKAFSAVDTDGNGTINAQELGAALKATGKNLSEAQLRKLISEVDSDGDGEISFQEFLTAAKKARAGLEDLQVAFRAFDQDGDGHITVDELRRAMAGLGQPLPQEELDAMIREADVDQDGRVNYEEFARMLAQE
T4 sequence (Q5T749 whole entry): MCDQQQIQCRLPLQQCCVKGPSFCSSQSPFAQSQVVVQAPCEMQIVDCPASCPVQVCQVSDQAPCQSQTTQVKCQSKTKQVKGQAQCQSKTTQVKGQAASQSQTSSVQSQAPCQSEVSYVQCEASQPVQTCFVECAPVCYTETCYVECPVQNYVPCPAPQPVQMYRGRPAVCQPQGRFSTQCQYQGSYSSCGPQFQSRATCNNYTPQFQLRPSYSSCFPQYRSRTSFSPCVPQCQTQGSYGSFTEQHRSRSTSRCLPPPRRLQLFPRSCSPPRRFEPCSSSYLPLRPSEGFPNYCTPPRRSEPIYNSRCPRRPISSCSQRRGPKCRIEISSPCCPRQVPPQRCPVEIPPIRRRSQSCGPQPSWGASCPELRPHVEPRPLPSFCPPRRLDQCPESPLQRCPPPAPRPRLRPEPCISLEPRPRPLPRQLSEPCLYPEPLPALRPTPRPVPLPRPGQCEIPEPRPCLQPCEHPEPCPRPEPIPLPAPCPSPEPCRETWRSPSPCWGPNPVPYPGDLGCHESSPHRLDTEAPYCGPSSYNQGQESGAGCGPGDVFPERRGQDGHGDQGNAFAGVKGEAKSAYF
T1 sequence (O60832 whole entry): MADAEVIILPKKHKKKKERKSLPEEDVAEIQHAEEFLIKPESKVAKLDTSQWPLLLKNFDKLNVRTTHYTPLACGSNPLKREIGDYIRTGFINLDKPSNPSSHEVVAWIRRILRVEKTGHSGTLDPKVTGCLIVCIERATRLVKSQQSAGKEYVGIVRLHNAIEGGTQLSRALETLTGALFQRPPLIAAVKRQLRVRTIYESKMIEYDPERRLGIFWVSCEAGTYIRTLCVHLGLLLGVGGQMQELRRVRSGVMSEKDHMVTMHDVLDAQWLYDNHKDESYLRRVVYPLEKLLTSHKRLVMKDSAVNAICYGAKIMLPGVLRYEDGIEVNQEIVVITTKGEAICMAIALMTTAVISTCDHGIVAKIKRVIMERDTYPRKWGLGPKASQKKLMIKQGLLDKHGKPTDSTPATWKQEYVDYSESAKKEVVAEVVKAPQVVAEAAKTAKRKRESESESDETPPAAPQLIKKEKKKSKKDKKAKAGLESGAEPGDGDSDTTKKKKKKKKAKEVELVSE
T7 sequence (P16615 whole entry): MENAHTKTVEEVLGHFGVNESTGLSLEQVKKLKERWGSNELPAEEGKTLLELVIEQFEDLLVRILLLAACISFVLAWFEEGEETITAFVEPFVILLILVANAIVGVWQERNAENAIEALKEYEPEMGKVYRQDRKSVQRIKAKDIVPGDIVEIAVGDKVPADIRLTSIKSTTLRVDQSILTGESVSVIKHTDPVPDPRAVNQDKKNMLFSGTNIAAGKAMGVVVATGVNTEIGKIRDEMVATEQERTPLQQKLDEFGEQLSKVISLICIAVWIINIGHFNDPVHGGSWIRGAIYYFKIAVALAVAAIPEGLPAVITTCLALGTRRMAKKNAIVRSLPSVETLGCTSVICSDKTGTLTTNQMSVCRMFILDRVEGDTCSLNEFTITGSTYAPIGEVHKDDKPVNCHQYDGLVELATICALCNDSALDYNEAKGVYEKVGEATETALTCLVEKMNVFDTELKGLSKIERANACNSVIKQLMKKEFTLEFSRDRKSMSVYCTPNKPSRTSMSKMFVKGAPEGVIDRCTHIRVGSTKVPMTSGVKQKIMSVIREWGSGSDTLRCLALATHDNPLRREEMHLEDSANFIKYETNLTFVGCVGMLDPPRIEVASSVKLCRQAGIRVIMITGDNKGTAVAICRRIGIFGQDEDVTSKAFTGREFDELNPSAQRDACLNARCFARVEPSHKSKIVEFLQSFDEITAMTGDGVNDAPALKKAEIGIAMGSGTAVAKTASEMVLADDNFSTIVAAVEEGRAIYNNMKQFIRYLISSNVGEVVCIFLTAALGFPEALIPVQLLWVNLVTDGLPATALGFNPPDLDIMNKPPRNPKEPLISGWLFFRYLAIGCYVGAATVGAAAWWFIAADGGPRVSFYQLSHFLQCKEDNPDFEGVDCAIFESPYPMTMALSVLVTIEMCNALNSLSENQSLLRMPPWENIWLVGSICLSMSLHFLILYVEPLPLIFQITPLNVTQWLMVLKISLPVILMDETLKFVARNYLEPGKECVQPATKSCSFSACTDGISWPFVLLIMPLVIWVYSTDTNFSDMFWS
T9 sequence (P42357 whole entry): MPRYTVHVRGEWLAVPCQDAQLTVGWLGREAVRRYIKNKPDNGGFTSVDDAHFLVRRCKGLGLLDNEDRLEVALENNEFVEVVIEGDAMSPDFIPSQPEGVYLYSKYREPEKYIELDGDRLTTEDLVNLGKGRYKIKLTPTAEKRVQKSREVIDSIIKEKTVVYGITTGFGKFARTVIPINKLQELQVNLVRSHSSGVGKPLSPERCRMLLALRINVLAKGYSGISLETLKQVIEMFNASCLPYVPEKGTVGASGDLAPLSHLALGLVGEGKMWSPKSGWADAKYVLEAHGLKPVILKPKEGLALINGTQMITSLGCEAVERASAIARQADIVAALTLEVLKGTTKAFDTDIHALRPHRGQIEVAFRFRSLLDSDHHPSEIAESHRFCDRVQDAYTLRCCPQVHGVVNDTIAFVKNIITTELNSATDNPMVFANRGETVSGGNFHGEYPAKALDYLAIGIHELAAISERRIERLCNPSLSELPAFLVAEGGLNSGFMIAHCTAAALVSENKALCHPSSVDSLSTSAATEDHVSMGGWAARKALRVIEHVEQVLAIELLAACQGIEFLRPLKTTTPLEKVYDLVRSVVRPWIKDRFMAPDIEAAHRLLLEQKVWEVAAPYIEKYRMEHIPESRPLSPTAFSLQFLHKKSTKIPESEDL
T2 sequence (P10599 whole entry): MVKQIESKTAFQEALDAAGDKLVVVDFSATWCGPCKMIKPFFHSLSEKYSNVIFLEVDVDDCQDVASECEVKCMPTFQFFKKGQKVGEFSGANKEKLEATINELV
T5 sequence (Q6UB35 32-978): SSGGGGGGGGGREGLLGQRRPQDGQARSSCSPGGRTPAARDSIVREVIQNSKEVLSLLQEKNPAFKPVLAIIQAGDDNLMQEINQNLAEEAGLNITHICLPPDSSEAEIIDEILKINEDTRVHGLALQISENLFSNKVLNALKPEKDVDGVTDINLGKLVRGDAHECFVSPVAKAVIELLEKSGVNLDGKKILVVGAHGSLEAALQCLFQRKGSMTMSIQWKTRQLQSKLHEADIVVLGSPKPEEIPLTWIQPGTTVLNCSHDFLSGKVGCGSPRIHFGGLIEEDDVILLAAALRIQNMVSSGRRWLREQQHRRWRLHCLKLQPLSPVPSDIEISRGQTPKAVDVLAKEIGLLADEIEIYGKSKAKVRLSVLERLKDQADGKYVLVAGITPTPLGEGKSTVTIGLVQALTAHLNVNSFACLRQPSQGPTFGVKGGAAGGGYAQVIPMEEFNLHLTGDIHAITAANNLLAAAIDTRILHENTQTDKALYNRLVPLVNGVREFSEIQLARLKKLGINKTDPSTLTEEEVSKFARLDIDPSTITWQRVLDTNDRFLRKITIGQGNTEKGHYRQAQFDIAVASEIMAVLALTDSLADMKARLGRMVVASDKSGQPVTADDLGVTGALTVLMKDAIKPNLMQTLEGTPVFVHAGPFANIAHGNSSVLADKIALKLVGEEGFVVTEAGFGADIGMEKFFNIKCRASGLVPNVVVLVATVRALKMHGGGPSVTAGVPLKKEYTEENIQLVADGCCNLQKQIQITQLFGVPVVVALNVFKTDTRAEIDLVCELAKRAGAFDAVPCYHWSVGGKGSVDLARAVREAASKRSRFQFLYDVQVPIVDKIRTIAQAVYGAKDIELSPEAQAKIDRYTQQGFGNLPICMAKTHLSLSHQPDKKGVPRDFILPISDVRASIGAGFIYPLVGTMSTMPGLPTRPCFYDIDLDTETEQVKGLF

For the compound `Cn1c2c(c(=N)c3c1CCC3)CCC2` [Compound 1, 4-methyl-2,3,4,5,6,7-hexahydrodicyclopenta[b,e]pyridin-8(1H)-imine], the Difference in test [1] (Cmpd minus DMSO, -LOG(P-value) 0.760368) was 0.5453; in test [2] (Cmpd minus DMSO, -LOG(P-value) 1.02279) it was -1.031; in test [3] (Cmpd minus DMSO, -LOG(P-value) 2.02756), -2.389; in test [4] (Cmpd minus DMSO, -LOG(P-value) 1.8417), -3.732; in test [5] (Cmpd minus DMSO, -LOG(P-value) 1.33022) it was 0.8728; in [6] (Cmpd minus DMSO, -LOG(P-value) 0.709566), 1.456. Besides, the Difference is recorded as 1.325 in test [7] (Cmpd minus DMSO, -LOG(P-value) 0.792118); 1.137 in [8] (Cmpd minus DMSO, -LOG(P-value) 1.63376); -1.443 in test [9] (Cmpd minus DMSO, -LOG(P-value) 1.13561); 1.553 in test [10] (Cmpd minus DMSO, -LOG(P-value) 0.798528). Moreover, the “iBAQ Cmpd” value in test [1] (replicates 1-3) is 19.0033 and 19.8581 and 19.0089; in test [2] (replicates 1-3), 20.7578 and 20.8108 and 19.926; in test [3] (replicates 1-3) it was 18.8431 and 20.0939 and 20.182; in test [4] (replicates 1-3), 15.9159 and 16.7213 and 14.3127; in test [5] (replicates 1-3), 15.8133 and 15.8201 and 15.0604; in test [6] (replicates 1-3), 18.8418 and 18.1506 and 17.9444. Moreover, the “iBAQ Cmpd” value in [7] (replicates 1-3) is 18.9227 and 18.7034 and 17.2331; in [8] (replicates 1-3), 19.492 and 19.0748 and 18.4379; in [9] (replicates 1-3) it was 15.8179 and 16.0542 and 14.8398; in test [10] (replicates 1-3) it was 20.8595 and 22.7108 and 22.2667.

Values taken from article PMC9481570, “A small molecule antagonist of SMN disrupts the interaction between SMN and RNAP II” (Nature Communications, 2022).
